Measurements as given in patent publication US20170305883A1, “Compositions and Methods for Inhibiting BMP” (THE BRIGHAM AND WOMEN'S HOSPITAL, INC., priority 2014, published 2017).

The compounds below were run against T1, ALK2 (Homo sapiens, UniProt Q04771, Q207D) (assay: Thermal shift kinase assay). Settings: ALK2 ΔTm minus ALK5 ΔTm.
T1 construct: His tag (N, cleaved yes); made in house; host or cells: Sf9 insect cells (baculovirus)
T1 sequence (Q04771 201-499 Q207D): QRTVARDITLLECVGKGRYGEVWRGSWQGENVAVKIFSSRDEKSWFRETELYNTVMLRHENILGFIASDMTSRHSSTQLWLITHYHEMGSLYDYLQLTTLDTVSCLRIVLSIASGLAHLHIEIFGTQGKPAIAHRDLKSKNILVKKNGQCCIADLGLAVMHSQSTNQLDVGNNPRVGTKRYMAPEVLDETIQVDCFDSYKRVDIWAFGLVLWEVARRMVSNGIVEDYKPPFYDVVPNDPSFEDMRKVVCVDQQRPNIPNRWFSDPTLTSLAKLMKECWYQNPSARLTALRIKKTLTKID
Assay type: binding
Protocol: Thermal melting experiments were performed using a Real Time PCR machine Mx3005p (Stratagene) with a protein concentration of 1-2 μM and 10 μM inhibitor as described by Niesen et al., Nat Protoc 2007, 2, 2212-21. Recombinant human kinases for DSF screening were prepared by SGC using the published methods of […] et al., PLoS One 2013, 8, e62721. The potency and selectivity of certain compounds of the invention based on thermal shift kinase and ligand induced transcriptional activity assays are shown in Table 2.

SMILES | ΔTm Diff. [°C]
COc1cc(-c2cc(-c3ccc(O)cc3)cnc2N)cc(OC)c1OC [Compound 11, 4-(6-Amino-5-(3,4,5-trimethoxyphenyl)pyridin-3-yl)phenol] | 1.5
COc1cc(-c2cnc(N)c(-c3cc(OC)c(OC)c(OC)c3)c2)ccc1O [Compound 12, 4-(6-amino-5-(3,4,5-trimethoxyphenyl)pyridin-3-yl)-2-methoxyphenol] | 1.7
COc1cc(-c2cc(-c3cccc(NS(C)(=O)=O)c3)cnc2N)cc(OC)c1OC [Compound 13, N-(3-(6-amino-5-(3,4,5-trimethoxyphenyl)pyridin-3-yl)phenyl)methanesulfonamide] | 0.9
Nc1ncc(-c2ccc(N3CCNCC3)cc2)cc1-c1ccc2c(c1)OCCO2 [Compound 19, 3-(2,3-dihydrobenzo[b][1,4]dioxin-6-yl)-5-(4-(piperazin-1-yl)phenyl)pyridin-2-amine] | 4.0
CNc1ncc(-c2ccc(N3CCNCC3)cc2)cc1-c1cc(OC)c(OC)c(OC)c1 [Compound 24, N-methyl-5-(4-(piperazin-1-yl)phenyl)-3-(3,4,5-trimethoxyphenyl)pyridin-2-amine] | −0.5
COc1cc(-c2cc(-c3ccc(N4CCNCC4)cc3)cnc2N(C)C)cc(OC)c1OC [Compound 25, N,N-dimethyl-5-(4-(piperazin-1-yl)phenyl)-3-(3,4,5-trimethoxyphenyl)pyridin-2-amine] | 0.1
COc1cc(-c2cncc(-c3ccc(N4CCNCC4)cc3)c2)cc(OC)c1OC [Compound 26, 1-(4-(5-(3,4,5-trimethoxyphenyl)pyridin-3-yl)phenyl)piperazine] | 3.7
COc1cc(-c2cc(-c3ccc(N4CCNCC4)cc3)cnc2Cl)cc(OC)c1OC [Compound 27, 1-(4-(6-chloro-5-(3,4,5-trimethoxyphenyl)pyridin-3-yl)phenyl)piperazine] | 3.8
COc1cc(-c2cc(-c3ccc(N4CCNCC4)cc3)cnc2OC)cc(OC)c1OC [Compound 28, 1-(4-(6-methoxy-5-(3,4,5-trimethoxyphenyl)pyridin-3-yl)phenyl)piperazine] | 0.1
Nc1ncc(-c2ccc(N3CCNCC3)cc2)cc1-c1ccnc2ccccc12 [Compound 29] | 3.4
Nc1ncc(-c2cccc(N3CCNCC3)c2)cc1-c1ccnc2ccccc12 [Compound 30, 5-(3-(piperazin-1-yl)phenyl)-3-(quinolin-4-yl)pyridin-2-amine] | 2.5
Nc1ncc(-c2ccc(N3CCNCC3)cc2)cc1-c1cccc2ncccc12 [Compound 31, 5-(4-(piperazin-1-yl)phenyl)-3-(quinolin-5-yl)pyridin-2-amine] | 4.2
COc1cc(-c2cnn3cc(-c4ccc(N5CCNCC5)cc4)cnc23)cc(OC)c1OC [Compound 32, 3-(3,4,5-trimethoxyphenyl)-6-[4-(1-piperazinyl)phenyl]pyrazolo[1,5-a]pyrimidine] | 2.6
COc1cc(OC)cc(-c2cncc(-c3ccc(N4CCNCC4)cc3)c2)c1 [Compound 33, 1-(4-(5-(3,5-dimethoxyphenyl)pyridin-3-yl)phenyl)piperazine] | 4.7
COc1cc(-c2cc(-c3cccc(O)c3)cnc2N)cc(OC)c1OC [Compound K02288, 3-(6-Amino-5-(3,4,5-trimethoxyphenyl)pyridin-3-yl)phenol, reference compound] | 2.0

The next lines start with the values.

ΔTm Diff. [°C] | SMILES
4.0 | COc1cc(-c2cc(-c3ccc(N4CCNCC4)cc3)cnc2C)cc(OC)c1OC [Compound 10, 1-(4-(6-methyl-5-(3,4,5-trimethoxyphenyl)pyridin-3-yl)phenyl)piperazine]
0.8 | COc1cc(-c2cc(-c3cccc(N4CCNCC4)c3)cnc2N)cc(OC)c1OC [Compound 14, 5-(3-(piperazin-1-yl)phenyl)-3-(3,4,5-trimethoxyphenyl)pyridin-2-amine]
1.2 | COc1cc(-c2cc(-c3ccc(N4CCNCC4)cc3)cnc2N)cc(OC)c1OC [Compound 15, 5-(4-(piperazin-1-yl)phenyl)-3-(3,4,5-trimethoxyphenyl)pyridin-2-amine]
4.3 | COc1ccc(-c2cc(-c3ccc(N4CCNCC4)cc3)cnc2N)cc1OC [Compound 16, 3-(3,4-dimethoxyphenyl)-5-(4-(piperazin-1-yl)phenyl)pyridin-2-amine]
3.5 | COc1cc(OC)cc(-c2cc(-c3ccc(N4CCNCC4)cc3)cnc2N)c1 [Compound 17, 3-(3,5-dimethoxyphenyl)-5-(4-(piperazin-1-yl)phenyl)pyridin-2-amine]
3.8 | COc1cccc(-c2cc(-c3ccc(N4CCNCC4)cc3)cnc2N)c1 [Compound 18, 3-(3-methoxyphenyl)-5-(4-(piperazin-1-yl)phenyl)pyridin-2-amine]
4.5 | COc1ccc(-c2cc(-c3ccc(N4CCNCC4)cc3)cnc2N)cc1 [Compound 20, 3-(4-methoxyphenyl)-5-(4-(piperazin-1-yl)phenyl)pyridin-2-amine]
1.0 | CC(C)Oc1cccc(-c2cc(-c3ccc(N4CCNCC4)cc3)cnc2N)c1 [Compound 21, 3-(3-isopropoxyphenyl)-5-(4-(piperazin-1-yl)phenyl)pyridin-2-amine]
2.7 | COc1cc(-c2cc(-c3ccc(N4CCNCC4)cc3)cnc2N)ccc1Cl [Compound 22, 3-(4-chloro-3-methoxyphenyl)-5-(4-(piperazin-1-yl)phenyl)pyridin-2-amine]
3.8 | COc1cc(-c2cc(-c3ccc(N4CCNCC4)cc3)cnc2N)ccc1C [Compound 23, 3-(3-methoxy-4-methylphenyl)-5-(4-(piperazin-1-yl)phenyl)pyridin-2-amine]

What follows are compounds tested against PKC-η (Homo sapiens, UniProt P24723) (assay: Kinome profiling). Settings: 100 nM, read-out: Inhibitory activity.
Assay type: biochemical
Protocol: The kinome-wide selectivity was determined following the methods previously reported by Mohedas et al., ACS Chem Biol 2013, 8, 1291-1302 and […] et al., PLoS One 2013, 8, e62721.

Sequence of PKC-η (P24723 whole entry): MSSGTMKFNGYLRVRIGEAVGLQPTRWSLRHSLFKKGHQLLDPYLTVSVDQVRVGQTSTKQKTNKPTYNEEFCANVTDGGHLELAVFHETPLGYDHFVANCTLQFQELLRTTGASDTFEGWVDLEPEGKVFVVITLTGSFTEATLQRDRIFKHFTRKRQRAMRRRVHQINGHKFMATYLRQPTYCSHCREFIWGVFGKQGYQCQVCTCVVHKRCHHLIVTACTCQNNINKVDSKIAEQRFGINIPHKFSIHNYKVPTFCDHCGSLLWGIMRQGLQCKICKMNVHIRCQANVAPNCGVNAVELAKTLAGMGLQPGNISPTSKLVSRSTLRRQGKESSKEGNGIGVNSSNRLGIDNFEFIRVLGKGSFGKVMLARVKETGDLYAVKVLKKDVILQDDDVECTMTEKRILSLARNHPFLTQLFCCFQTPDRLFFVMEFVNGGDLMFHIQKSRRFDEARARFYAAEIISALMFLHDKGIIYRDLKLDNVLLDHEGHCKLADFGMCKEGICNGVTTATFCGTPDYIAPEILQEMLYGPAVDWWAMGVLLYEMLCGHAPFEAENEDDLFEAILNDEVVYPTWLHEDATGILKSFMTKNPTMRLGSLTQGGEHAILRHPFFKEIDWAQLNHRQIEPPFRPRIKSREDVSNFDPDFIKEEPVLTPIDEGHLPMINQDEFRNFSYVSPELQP

inhibition at 0.1 µM [%] | SMILES
5 | COc1cc(-c2cc(-c3ccc(N4CCNCC4)cc3)cnc2N)cc(OC)c1OC [Compound 15, 5-(4-(piperazin-1-yl)phenyl)-3-(3,4,5-trimethoxyphenyl)pyridin-2-amine]
